Assays:
[1] = tested on: Wa strain RV; experiment: Effect against RV synthesis (drug after virus), CCK-8 viral inhibition rate; assay type: cell-based, Rotavirus; settings: 48 h; for effect of synthesis inhibition on RV: MA104-2 cells, 100 TCID50 virus
Protocol: 100 TCID50 virus solution (the virus acts with 10 μg/mL pancreatin for 30 min) is added to the 96-well culture plate of the MA104-2 cells that grow to the single layer, and each well contains 100 μL. The cells have been washed twice with PBS. Normal cell control is set, and added with an equal volume of DMEM. Incubation is conducted at 37° C. and 5% CO2 for 2 h. Then, the virus solution is sucked out and added into different concentrations of drug solution and ribavirin respectively, and each well contains 100 μL. Virus control is set. Only the cell maintenance solution is added, and each well contains 100 μL. Incubation is conducted at 37° C. and 5% CO2 for continuous observation. After continuous culture for 48 h, CCK-8 kit is used for detection. 1/10 volume of CCK-8 solution is added to each well, and incubated in the incubator. After 90 min, the absorbance is detected and recorded at 450 nm wavelength. The viral inhibition rate of the drug is calculated, and the experiment is repeated for 3 times. The formula of the viral inhibition rate is:
(§1) {(Adrug group−Avirus group)/(Anormal group−Avirus group)×100%}.

[2] = tested on: VP6 gene; experiment: Gene expression of structural protein VP6 in RV-infected MA104 cells, real-time quantitative PCR; assay type: cell-based, Rotavirus; settings: 1 μM, 5 M and 10 μM, compared with RV group, most significant at 5 μM
Text: The Experimental Method is as Follows: • (1) Extraction and quantification of total RNA; • (2) Primer sequence design; • (3) Reverse transcription reaction; • (4) SYBR Green I fluorescent labeling is used for real-time quantitative PCR detection of expression of VP6 gene.

[3] = tested on: Wa strain RV; experiment: Effect against RV adsorption (drug before virus), CCK-8 viral inhibition rate; assay type: cell-based, Rotavirus; settings: MA104 cells, 1 μM, 5 μM and 10 μM, compared with ribavirin group
Protocol: The 96-well culture plate of the MA104 cells that grow to the single layer is added with the drug solution. Each drug solution is repeated with 6 wells, and each well contains 100 μL. An equal volume of ribavirin is added to the positive control group, and only an equal volume of DMEM culture solution (without serum) is added to the normal cell control group and the viral control group. Incubation is conducted at 37° C. and 5% CO2 for 2 h. The drug solution is sucked out. Except the normal cell control group, 100 TCID50 virus is added (the virus acts with 10 μg/mL pancreatin at 37° C. for 30 min), and each well contains 100 μL. Incubation is conducted at 37° C. and 5% CO2 for 2 h. The virus is sucked out, the cell maintenance solution is added, and each well contains 200 μL. Incubation is conducted at 37° C. and 5% CO2 for continuous observation. After culture for 48 h, CCK-8 kit is used for detection. 1/10 volume of CCK-8 solution is added to each well, and incubated in the incubator. After 90 min, the absorbance is detected and recorded at 450 nm wavelength. The experiment is repeated for 3 times. The formula of the viral inhibition rate is:
as §1

[4] = tested on: Wa strain RV; experiment: Direct killing effect on RV (drug mixed with virus), CCK-8 viral inhibition rate; assay type: cell-based, Rotavirus; settings: MA104 cells, 100 TCID50 virus, 48 h; inhibition rate lower than ribavirin group
Protocol: The drug is mixed with 100 TCID50 virus solution (the virus acts with 10 μg/mL pancreatin for 30 min) at an equal volume for 2 h. After the cells are washed twice with PBS, the cells are added to the 96-well culture plate of the MA104 cells that grow to the single layer. In the positive control group, the same operation as above is conducted for ribavirin and RV, and only an equal volume of DMEM (without serum) is added to the normal cell control group and the viral control group. Incubation is conducted at 37° C. and 5% CO2 for 2 h. Then, the mixed solution is sucked out, the cell maintenance solution is added, and each well contains 100 μL. Incubation is conducted at 37° C. and 5% CO2 for continuous observation. After culture for 48 h, CCK-8 kit is used for detection. 1/10 volume of CCK-8 solution is added to each well, and incubated in the incubator. After 90 min, the absorbance is detected and recorded at 450 nm wavelength. The viral inhibition rate of the drug is calculated, and the experiment is repeated for 3 times. The formula of the viral inhibition rate is:
as §1

[5] = tested on: MA104 cells; experiment: Toxicity of Chebulinic acid to MA104 cells by CCK8 method; assay type: cell-based; settings: 48 h
Protocol: According to the common drug concentration range of Chebulinic acid, the cytotoxicity pre-experiment is performed between 1 μM and 25 μM in this experiment. The MA104 cells at the logarithmic growth stage are observed under a microscope. The cellular morphology is uniform and full with clear edges, and when the number reaches 80%, digestion, centrifugation and re-suspension are conducted. After further dilution of the suspension, […] is taken on a blood cell counting plate to count and calculate the required cell volume. Then, the cells are laid in a 96-well plate, 100 µL of cell suspension is added to each well, and the cell density is 8×10^4 cells/mL. When the cells adhere to the wall to form a single layer, the drug group is administered, and the normal group is added with an equal volume of DMEM (without serum). After incubation for 48 h, the cytotoxicity of Chebulinic acid is detected by CCK8 reagent. 1/10 volume of CCK8 solution is added to each well and incubated in an incubator. After 90 min, the absorbance is detected and recorded under the condition of oscillation for 10 s and at 450 nm wavelength. The formula for the relative survival rate of the cells is:
{(Axpenmentai group−Ablank)/(Acontrol group−Ablaimk)×100%}.

[6] = Rotavirus, read-out: anti-RV inhibition rate (synthesis)

Compound	effect of synthesis inhibition on RV [1]	VP6 expression [2]	anti-RV adsorption effect [3]	direct killing effect on RV [4]	inhibition at 1 µM [1, 6] [%]	inhibition at 5 µM [1, 6] [%]	inhibition at 10 µM [1, 6] [%]	drug toxicity to the cells ([5]; 1 μM to 10 μM)	average survival rate ([5]; Chebulinic acid 1 μM to 10 μM)
NC(=O)c1ncn([C@@H]2O[C@H](CO)[C@@H](O)[C@H]2O)n1 [ribavirin, reference compound]	obvious effect of synthesis inhibition	–	–	–	–	–	–	–	–
O=C(O)C[C@@H]1C(=O)O[C@H]2[C@H](OC(=O)c3cc(O)c(O)c(O)c3)[C@@H](OC(=O)c3cc(O)c(O)c4c3[C@H]1[C@H](O)C(=O)O4)[C@H](OC(=O)c1cc(O)c(O)c(O)c1)O[C@@H]2COC(=O)c1cc(O)c(O)c(O)c1 [Chebulinic acid]	obvious effect of synthesis inhibition	significantly decreased	no obvious anti-RV adsorption effect	no obvious direct killing effect	80	75.3	61.9	no drug toxicity	above 95%

— patent US20240082285A1 (priority 2022, published 2024)
